Laboratory results from US20100041089A1, “IMPROVED METHOD FOR DETECTING CHEMICAL […]” (priority 2006, published 2010).

Tested on: yeast genes (expressed mRNA)
Assay: DNA chip measurement of expressed mRNA of yeast genes after culture with a toxic chemical substance
Assay type: cell-based, Saccharomyces cerevisiae S288C
Summary of the method: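 Yeast S288C, YPD 25° C; toxicant at log phase, 2 h, sublethal growth-inhibiting conc.; no-chemical control. Hot SDS/acetate RNA extraction, oligo-dT mRNA, Cy3/Cy5-dUTP RT. Whole-genome chip, 65° C >12 h. Readout: treated/control intensity ratio, ≥2 significant.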

SMILES: CN(C)C(=S)SSC(=S)N(C)C [(10), Tetramethylthiuram disulfide]
- The level of expressed mRNA in the presence of chemical substance/The level of expressed mRNA in the absence of chemical substance (yeast gene YAL053W, cultured two hours with substance): 0.9
- The level of expressed mRNA in the presence of chemical substance/The level of expressed mRNA in the absence of chemical substance (yeast gene YAR028W, cultured two hours with substance): 0.9
- The level of expressed mRNA in the presence of chemical substance/The level of expressed mRNA in the absence of chemical substance (yeast gene YBL043W): 14.7
- The level of expressed mRNA in the presence of chemical substance/The level of expressed mRNA in the absence of chemical substance (yeast gene YBL048W, cultured two hours with substance): 4.4
- The level of expressed mRNA in the presence of chemical substance/The level of expressed mRNA in the absence of chemical substance (yeast gene YBL078C): 15.2
- The level of expressed mRNA in the presence of chemical substance/The level of expressed mRNA in the absence of chemical substance (yeast gene YBL107C, cultured two hours with substance): 3.1
- The level of expressed mRNA in the presence of chemical substance/The level of expressed mRNA in the absence of chemical substance (yeast gene YBR008C (detoxification protein gene)): 21.1
- The level of expressed mRNA in the presence of chemical substance/The level of expressed mRNA in the absence of chemical substance (yeast gene YBR008C (transport facilitation protein gene)): 21.1
- The level of expressed mRNA in the presence of chemical substance/The level of expressed mRNA in the absence of chemical substance (yeast gene YBR046C): 6.2
- The level of expressed mRNA in the presence of chemical substance/The level of expressed mRNA in the absence of chemical substance (yeast gene YBR072W (stress protein genes)): 43.4
- The level of expressed mRNA in the presence of chemical substance/The level of expressed mRNA in the absence of chemical substance (yeast gene YBR099C, cultured two hours with substance): 12.9
- The level of expressed mRNA in the presence of chemical substance/The level of expressed mRNA in the absence of chemical substance (yeast gene YCL027W): 16.3
- The level of expressed mRNA in the presence of chemical substance/The level of expressed mRNA in the absence of chemical substance (yeast gene YCL069W (detoxification protein gene)): 6.9
- The level of expressed mRNA in the presence of chemical substance/The level of expressed mRNA in the absence of chemical substance (yeast gene YCL069W (transport facilitation protein gene)): 6.9
- The level of expressed mRNA in the presence of chemical substance/The level of expressed mRNA in the absence of chemical substance (yeast gene YCR102C, cultured two hours with substance): 61.5
- The level of expressed mRNA in the presence of chemical substance/The level of expressed mRNA in the absence of chemical substance (yeast gene YDL021W, cultured for two hours with substance): 7.4
- The level of expressed mRNA in the presence of chemical substance/The level of expressed mRNA in the absence of chemical substance (yeast gene YDL059C, DNA repair protein genes, cultured two hours with substance): 7.8
- The level of expressed mRNA in the presence of chemical substance/The level of expressed mRNA in the absence of chemical substance (yeast gene YDL072C, cultured two hours with substance): 1.5
- The level of expressed mRNA in the presence of chemical substance/The level of expressed mRNA in the absence of chemical substance (yeast gene YDL204W, cultured two hours with substance): 2.0
- The level of expressed mRNA in the presence of chemical substance/The level of expressed mRNA in the absence of chemical substance (yeast gene YDL218W, cultured two hours with substance): 12.6
- The level of expressed mRNA in the presence of chemical substance/The level of expressed mRNA in the absence of chemical substance (yeast gene YDL222C, cultured two hours with substance): 1.0
- The level of expressed mRNA in the presence of chemical substance/The level of expressed mRNA in the absence of chemical substance (yeast gene YDL243C): 29.6
- The level of expressed mRNA in the presence of chemical substance/The level of expressed mRNA in the absence of chemical substance (yeast gene YDL243C, cultured for two hours with substance): 29.6
- The level of expressed mRNA in the presence of chemical substance/The level of expressed mRNA in the absence of chemical substance (yeast gene YDR031W, cultured two hours with substance): 2.7
- The level of expressed mRNA in the presence of chemical substance/The level of expressed mRNA in the absence of chemical substance (yeast gene YDR056C, cultured two hours with substance): 2.3
- The level of expressed mRNA in the presence of chemical substance/The level of expressed mRNA in the absence of chemical substance (yeast gene YDR069C): 4.5
- The level of expressed mRNA in the presence of chemical substance/The level of expressed mRNA in the absence of chemical substance (yeast gene YDR210W, cultured two hours with substance): 1.0
- The level of expressed mRNA in the presence of chemical substance/The level of expressed mRNA in the absence of chemical substance (yeast gene YDR258C (stress protein genes)): 13.3
- The level of expressed mRNA in the presence of chemical substance/The level of expressed mRNA in the absence of chemical substance (yeast gene YDR258C, mitochondria-located protein gene): 13.3
- The level of expressed mRNA in the presence of chemical substance/The level of expressed mRNA in the absence of chemical substance (yeast gene YDR330W, cultured two hours with substance): 2.6
- The level of expressed mRNA in the presence of chemical substance/The level of expressed mRNA in the absence of chemical substance (yeast gene YDR353W): 5.1
- The level of expressed mRNA in the presence of chemical substance/The level of expressed mRNA in the absence of chemical substance (yeast gene YDR391C, cultured two hours with substance): 2.7
- The level of expressed mRNA in the presence of chemical substance/The level of expressed mRNA in the absence of chemical substance (yeast gene YDR411C, cultured two hours with substance): 1.0
- The level of expressed mRNA in the presence of chemical substance/The level of expressed mRNA in the absence of chemical substance (yeast gene YDR486C, cultured two hours with substance): 5.8
- The level of expressed mRNA in the presence of chemical substance/The level of expressed mRNA in the absence of chemical substance (yeast gene YDR511W, cultured two hours with substance): 2.2
- The level of expressed mRNA in the presence of chemical substance/The level of expressed mRNA in the absence of chemical substance (yeast gene YDR533C, cultured two hours with substance): 12.7
- The level of expressed mRNA in the presence of chemical substance/The level of expressed mRNA in the absence of chemical substance (yeast gene YDR545W, cultured two hours with substance): 0.7
- The level of expressed mRNA in the presence of chemical substance/The level of expressed mRNA in the absence of chemical substance (yeast gene YEL001C, cultured two hours with substance): 1.2
- The level of expressed mRNA in the presence of chemical substance/The level of expressed mRNA in the absence of chemical substance (yeast gene YER004W, cultured two hours with substance): 2.9
- The level of expressed mRNA in the presence of chemical substance/The level of expressed mRNA in the absence of chemical substance (yeast gene YER035W, cultured two hours with substance): 1.4
- The level of expressed mRNA in the presence of chemical substance/The level of expressed mRNA in the absence of chemical substance (yeast gene YER038C, cultured two hours with substance): 2.5
- The level of expressed mRNA in the presence of chemical substance/The level of expressed mRNA in the absence of chemical substance (yeast gene YER069W): 10.4
- The level of expressed mRNA in the presence of chemical substance/The level of expressed mRNA in the absence of chemical substance (yeast gene YER069W, mitochondria-located protein gene): 10.4
- The level of expressed mRNA in the presence of chemical substance/The level of expressed mRNA in the absence of chemical substance (yeast gene YER079W, cultured two hours with substance): 3.4
- The level of expressed mRNA in the presence of chemical substance/The level of expressed mRNA in the absence of chemical substance (yeast gene YER106W, cultured two hours with substance): 1.8
- The level of expressed mRNA in the presence of chemical substance/The level of expressed mRNA in the absence of chemical substance (yeast gene YER158C, cultured two hours with substance): 1.6
- The level of expressed mRNA in the presence of chemical substance/The level of expressed mRNA in the absence of chemical substance (yeast gene YER163C, cultured two hours with substance): 3.4
- The level of expressed mRNA in the presence of chemical substance/The level of expressed mRNA in the absence of chemical substance (yeast gene YER175C, cultured two hours with substance): 11.5
- The level of expressed mRNA in the presence of chemical substance/The level of expressed mRNA in the absence of chemical substance (yeast gene YFL006W, cultured two hours with substance): 1.7
